Read-outs that look alike come from different tables or passages of the source.
How the values were obtained:
[1] = rats, intraperitoneal; Non-Patent Documents 5 and 6; cited from earlier work
[2] = Oral administration experiment with SHR rats (summary statement); assay type: in vivo, rat
[3] = Blood pressure lowering effect of samples (31)-(38) in SHR rats, same manner as Test example 6 (Table 11); assay type: in vivo, rat; conditions: oral
[4] = Non-Patent Document 4; cited from earlier work
[5] = Test example 6: test of blood pressure lowering effect using SHR rats, samples (16)-(30) (Table 9); assay type: in vivo, rat; conditions: oral, mean ± SE, dose mg/kg: 17: 500, 18: 1.5, 19: 3.0, 20, 21, 24, 26, 27, 28, 30: 50, 22, 23: 20, 25, 29: 100
[6] = n=5, 2 h after administration, mean ± SE, dose mg/kg: 32, 33, 35, 36, 37: 20, 34: 23.4, 38: 32.4
[7] = n=5, 4 h after administration, mean ± SE, dose mg/kg: 32, 33, 35, 36, 37: 20, 34: 23.4, 38: 32.4
[8] = n=5, column after 4 h, time not printed in this copy (line cut), dose mg/kg: 32, 33, 35, 36, 37: 20, 34: 23.4, 38: 32.4
[9] = n=5, 0 h (before administration), mean ± SE, dose mg/kg: 32, 33, 35, 36, 37: 20, 34: 23.4, 38: 32.4

Compound	blood pressure during systole and diastole ([2]; SHR rats, oral administration)	effect on heart rate ([2]; SHR rats, oral administration)	systolic blood pressure [3, 6]	systolic blood pressure [3, 7]	systolic blood pressure [3, 8]	systolic blood pressure [3, 9]	other results
N[C@@H](Cc1c[nH]c2ccccc12)C(=O)O [L-tributophan]	–	–	–	–	–	–	blood pressure lowering effect [1]: blood pressure lowering effect
CC[C@H](C)[C@H](N)C(=O)O [Sample 20, Isoleucine]	significantly reduce blood pressure during systole and diastole	without affecting the heart rate	163±2.5	162+2.6	180	–	–
CC(C)C[C@H](N)C(=O)O [Sample 21, Leucine]	significantly reduce blood pressure during systole and diastole	–	162±1.0	162±2.7	174	189±1.7	effect on heart rate ([2]; rat, in vivo, po): without affecting the heart rate
N=C(N)NCCC[C@H](N)C(=O)O [Sample 22, Arginine]	–	–	–	–	–	–	blood pressure lowering effect [4]: blood pressure lowering effect in systole and diastole; heart rate [4]: increase in heart rate
N[C@@H](Cc1c[nH]cn1)C(=O)O [Sample 23, Histidine]	significantly reduce blood pressure during systole and diastole	without affecting the heart rate	152+3.3	157±1.6	171	186+1.7	–
N[C@@H](CCC(=O)[O-])C(=O)[O-].[Na+].[Na+] [Sample 25, Sodium glutamate]	–	–	165±2.	–	177	–	–
N[C@@H](CO)C(=O)O [Sample 36, Serine]	significantly reduce blood pressure during systole and diastole	–	164±1.4	158±3.7	172	–	effect on heart rate ([2]; rat, in vivo, po): without affecting the heart rate; systolic blood pressure ([3]; n=5, 0 h (before administration), mean ± SE, dose mg/kg: 32, 33, 35, 36, 37: 20, 34: 23.4, 38: 32.4, in mmHg): 190+2.0
N[C@@H](Cc1ccccc1)C(=O)O [Sample 37, phenylalanine]	significantly reduce blood pressure during systole and diastole	without affecting the heart rate	–	165±1.7	175	191±1.5	–
N[C@@H](Cc1ccc(O)cc1)C(=O)O [Sample 38, Tyrosine, reference compound]	–	–	161 ±1.8	159±1.1	169	189±1.7	blood pressure lowering effect [1]: blood pressure lowering effect
N[C@@H](CCC(=O)O)C(=O)O [glutamic acid]	significantly reduce blood pressure during systole and diastole	without affecting the heart rate	–	–	–	–	–
bovine serum albumin [Sample 17]	–	–	–	–	–	–	systolic blood pressure ([5]; n=5, 0 h (before administration)): 186 + 2.2 mmH; systolic blood pressure ([5]; n=5, 2 h after administration): 169 + 1.8 mmH; systolic blood pressure ([5]; n=5, 4 h after administration): 170 ± 0.5 mmH
